Test results taken from patent US8673850B2, “PCSK9 inhibitors and methods of use thereof” (Institut de Recherches Cliniques de Montreal, priority 2008, dated 2014).

Legend:
AnxA2 [1] = assay: shRNA knockdown in HuH7 cells, AnxA2 Western blot; type: cell-based, human; conditions: HuH7, stable or transient transfection, vs control shRNA
Experimental: (§1) To silence human AnxA2, a 29mer pRS-shRNA was used: (sh3, […] (SEQ ID NO: 105)) (Origene). The control pRS-shGFP vector [shCtl] contained a non-effective 29mer shGFP cassette.
(§2) HepG2, HuH7, COS-1, BSC40 and HEK293 cell were grown in Dulbecco's modified Eagle's medium (DMEM) with 10% fetal bovine serum (FBS; Gibco), whereas CHO-K1 and CHO-K1 mutant Pgsd-677 cells that lack heparan sulfate proteoglycans^26 were grown in Ham's F12:DMEM (50:50) media with 10% FBS. Y1 mouse adrenal cells were grown in F12K medium with 15% horse serum and 2.5% FBS. All cells were maintained at 37° C. under 5% CO2. At 80-90% confluence, HuH7 and CHO-K1 cells were transiently transfected with Lipofectamine™ 2000 (Invitrogen), HEK293 cells were transfected with Effectene™ (Qiagen) and HepG2 cells were transfected with Fugene™ HD (Roche). […] For analysis of the various AnxA2 mutants in HEK293 cells, 24 h post-transfection, the cells were washed and then incubated for another 24 h in complete medium containing 50 μM of the proteasome inhibitor ALLN (Calbiochem). […]
(§3) Western blotting experiments were made on samples that were reduced in Laemmli buffer, heated and resolved on 8% glycine SDS-PAGE gels. […] Quantitation of band intensity was done with the ImageJ™ software version 1.37 (Wayne Rasband, National Institutes of Health, Bethesda, Md.).

LDLR [2] = assay: shRNA knockdown in HuH7 cells, LDLR Western blot; type: cell-based, human; conditions: HuH7, stable or transient transfection, vs control shRNA
Experimental: as §1, §2, §3

LDLR [3] = assay: LDLR Western blot of transfected HEK293 cells; type: cell-based, human; conditions: HEK293 cells (negligible PCSK9), with or without p11
Experimental: HepG2, HuH7, COS-1, BSC40 and HEK293 cell were grown in Dulbecco's modified Eagle's medium (DMEM) with 10% fetal bovine serum (FBS; Gibco), whereas CHO-K1 and CHO-K1 mutant Pgsd-677 cells that lack heparan sulfate proteoglycans^26 were grown in Ham's F12:DMEM (50:50) media with 10% FBS. Y1 mouse adrenal cells were grown in F12K medium with 15% horse serum and 2.5% FBS. All cells were maintained at 37° C. under 5% CO2. At 80-90% confluence, HuH7 and CHO-K1 cells were transiently transfected with Lipofectamine™ 2000 (Invitrogen), HEK293 cells were transfected with Effectene™ (Qiagen) and HepG2 cells were transfected with Fugene™ HD (Roche). […] For analysis of the various AnxA2 mutants in HEK293 cells, 24 h post-transfection, the cells were washed and then incubated for another 24 h in complete medium containing 50 μM of the proteasome inhibitor ALLN (Calbiochem). Stable transfectants of shRNA-AnxA2 were obtained in HuH7 cells following puromycin selection.
as §3, with “gels. Separated proteins were then electro-transferred onto nitrocellulose, and probed with HRP-conjugated anti-V5 or anti-HA tags or with primary antibodies.” for “gels.”

AnxA2 [4] = assay: 5-Azacytidine treatment of HepG2 cells, AnxA2 expression; type: cell-based, human
Text: as §3, with “gels. Separated proteins were then electro-transferred onto nitrocellulose, and probed with HRP-conjugated anti-V5 or anti-HA tags or with primary antibodies.” for “gels.”
(§4) For RNA preparation and cDNA synthesis cells were washed with PBS and incubated with Trizol reagent (Life Technologies). Total RNA was extracted and resuspended in ˜30 μL of water. Isolated RNA integrity was electrophoretically verified by ethidium bromide staining and optical density. Typically, 250 ng of total RNA were used for cDNA synthesis in a total volume of 20 μL using SuperScript™ II reverse transcriptase, 25 μg/mL oligo(dT)12-18, 0.5 mmol/L 2′-deoxynucleoside 5′-triphosphates, and 40 U of RNaseOUT™, all products from Life Technologies, and used according to the recommendations of the manufacturer. All primers were designed using Primer3™ software and optimized for each amplification. […] Each reaction was in a final volume of 25 μL using the QuantiTec SYBR Green™ PCR master mix from Qiagen, cDNA dilutions that gave threshold cycle (Ct) values for both amplifications, and primers for ribosomal-protein genes or the chosen target gene. […]

PCSK9 = assay: 5-Azacytidine treatment of HepG2 cells, PCSK9 expression; type: cell-based, human
Text: as §3, with “gels. Separated proteins were then electro-transferred onto nitrocellulose, and probed with HRP-conjugated anti-V5 or anti-HA tags or with primary antibodies.” for “gels.”
as §4

LDLR [5] = assay: 5-Azacytidine treatment of HepG2 cells, LDLR expression; type: cell-based, human
Text: as §3, with “gels. Separated proteins were then electro-transferred onto nitrocellulose, and probed with HRP-conjugated anti-V5 or anti-HA tags or with primary antibodies.” for “gels.”
as §4

HMG-CoA reductase = assay: 5-Azacytidine treatment of HepG2 cells, HMG-CoA reductase expression; type: cell-based, human; conditions: HepG2, qPCR
Experimental: For RNA preparation and cDNA synthesis cells were washed with PBS and incubated with Trizol reagent (Life Technologies). Total RNA was extracted and resuspended in ˜30 μL of water. Isolated RNA integrity was electrophoretically verified by ethidium bromide staining and optical density. Typically, 250 ng of total RNA were used for cDNA synthesis in a total volume of 20 μL using SuperScript™ II reverse transcriptase, 25 μg/mL oligo(dT)12-18, 0.5 mmol/L 2′-deoxynucleoside 5′-triphosphates, and 40 U of RNaseOUT™, all products from Life Technologies, and used according to the recommendations of the manufacturer. All primers were designed using Primer3™ software and optimized for each amplification. Each cDNA sample was submitted to 2 polymerase chain reaction (PCR) amplifications: one for normalizing ribosomal-protein gene (S14 for human and S16 for mouse cDNAs) and the other for the gene of interest, each in triplicate. Each reaction was in a final volume of 25 μL using the QuantiTec SYBR Green™ PCR master mix from Qiagen, cDNA dilutions that gave threshold cycle (Ct) values for both amplifications, and primers for ribosomal-protein genes or the chosen target gene. The Mx3500P™ system from Stratagene was used to perform and analyze the QPCR reactions, using S14 amplifications as normalizers and control samples as calibrators^25.35.

Annexin II = conditions: LNCaP cells; cited from earlier work

Row | Molecule | knockdown of AnxA2 (AnxA2 [1]) | reduction of the LDLR levels (LDLR [2]) | levels of endogenous LDLR (LDLR [3]) | AnxA2 mRNA expression (AnxA2 [4]; HepG2, 10 μM, qPCR) [fold] | AnxA2 protein level (AnxA2 [4]; HepG2, Western blot) | secreted form of PCSK9 by western blot (PCSK9; HepG2, 24 or 48 hours of treatment) | mRNA level of PCSK9 (PCSK9; HepG2, qPCR) | LDLR expression at the protein level (LDLR [5]; HepG2, Western blot) | LDLR mRNA level (LDLR [5]; HepG2, qPCR) | HMG-CoA reductase mRNA level (HMG-CoA reductase) | expression of Annexin II (Annexin II)
1 | AnxA2-shRNA: 29mer pRS-shRNA silencing human AnxA2, GCATCAGCACTGAAGTCAGCCTTATCTGG (SEQ ID NO: 105) | 60-70% | 40-70% | None of these treatments affected the levels of endogenous LDLR | – | – | – | – | – | – | – | –
2 | Nc1ncn([C@@H]2O[C@H](CO)[C@@H](O)[C@H]2O)c(=O)n1 [5-Azacytidine] | – | – | – | 3 | highly increased | barely detectable | drastically decreased | increased expression | increased | decreased | induced an increase of expression
